From ChEMBL document CHEMBL2163293, “Rational approaches to improving selectivity in drug design” (J Med Chem, 2012)

Biological target: Protease (Human immunodeficiency virus 1, UniProt Q9YQ12)
Experiment: Inhibition of HIV1 protease

Protease, sequence (Q9YQ12 whole entry): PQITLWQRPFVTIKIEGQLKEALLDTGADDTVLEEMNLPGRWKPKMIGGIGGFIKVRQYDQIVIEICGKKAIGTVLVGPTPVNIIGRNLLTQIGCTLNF

Ki: 0.02 nM
SMILES: CC(=O)N[C@H](C(=O)N[C@H](C(=O)N[C@@H](CC(C)C)[C@@H](O)CC(=O)N[C@@H](C)C(=O)N[C@@H](CC(C)C)[C@@H](O)CC(=O)O)C(C)C)C(C)C [ACETYLPEPSTATIN]
